Values joined by “and” are separate entries in the source; they are usually repeats but may differ in a detail not shown here. Identical values can stand only once. Like-named read-outs stand apart in the source and are kept apart here.
Tests used:
[1] = system: RAW 264.7 macrophages; test: Nitric oxide (NO) secretion by LPS-activated macrophages (Griess reagent); format: cell-based; details: for effect of ECS receptor antagonists alone on NO secretion: 24 h (FIG. 5B)
Procedure: NO secretion was determined by measuring the amount of nitrite, using a Griess reagent (Promega) according to manufacturer's protocol. Briefly, 50 μl of supernatant was added to 96-well plate, followed by 50 μl sulphanilamide and 50 μl N−1-napthylethylenediamine dihydrochloride (NED). The optical densities were quantified using a multi-well spectrophotometer, and nitrite concentrations were estimated using a standard nitrite curve. Results were calculated as the percentage of control cultures.
The poor bioavailability of CBD may hamper its effectiveness as an anti-inflammatory drug. To test whether antagonists of the ECS may potentiate the anti-inflammatory effect of CBD, the inventors used the RAW 264.7 macrophages as a model system for inflammation. Exposure of cells to bacterial lipopolysaccharide (LPS) initiates a signal transduction cascade that leads to increased production of nitrite oxide (NO), secretion of pro-inflammatory cytokines, and acquisition of enhanced bactericidal activity.
First, the inventors studied the response of LPS-activated RAW 264.7 cells to CBD. Cells were cultured with LPS, with/without CBD at 0.63-5 μM concentrations for 24 hrs. Supernatants were harvested for measuring NO by spectrophotometry using the Greiss reagent. […] To test whether antagonists of the ECS can modify the anti-inflammatory activity of CBD, the inventors further exposed the cells to LPS, CBD, ECS antagonists (detailed in Table 2), and their combinations. Two distinct CB2 antagonists (AM630 and COR170) were tested, as CB2 is known to be involved in the regulation of inflammation.

[2] = system: MDA-MB-231 cells; details: 24 h
[3] = system: MCF7 cells; format: cell-based; details: 24 h; cannabis containing 4 μM CBD; 32 μM capsazepine; 400 μM capsaicin; 5 μM thapsigargin; alone or combined
[4] = system: T47D cells; format: cell-based; details: 24 h; cannabis containing 4 μM CBD; 32 μM capsazepine; 400 μM capsaicin; 5 μM thapsigargin; alone or combined
[5] = system: MDA-MB-468 cells; format: cell-based; details: 24 h; 1:2 dilution of the original doses: cannabis containing 2 μM CBD; 16 μM capsazepine; capsaicin and thapsigargin diluted 1:2 from 400 μM and 5 μM; alone or combined
[6] = cannabis containing 4 μM CBD, 400 μM capsaicin, 5 μM thapsigargin, alone or combined

SMILES	effect of ECS receptor antagonists alone on NO secretion [1]	NO secretion, dose response ([1]; 24 h, CBD 0.63-5 μM (FIG. 5A))	activity at 2.5 µM ([1]; Mus musculus, RAW264.7, 24 h, 2.5 μM CBD, with or without 10 μM capsazepine, read-out: NO secretion, % of control cells treated with vehicle (DMSO)) [%]	cell survival ([2]; 2.5 μM pure CBD, with or without 32 μM capsazepine (FIG. 1D)) [%]	cell survival [3] [%]	cell survival [4] [%]	cell survival [2, 6] [%]	cell survival [5]	effect of ECS receptor antagonist on cytotoxic activity of cannabis ([2]; co-treatment with CBD-enriched cannabis (FIG. 1B))
CCC(=O)NC[C@H](Cc1ccc(OCCc2nc(-c3ccccc3)oc2C)cc1)N/C(C)=C\C(=O)c1ccc(C(F)(F)F)cc1 [GW6471]	mild effect on NO secretion								
C=C(C)[C@@H]1CCC(C)=C[C@H]1c1c(O)cc(CCCCC)cc1O [CBD, cannabidiol]		reduced NO secretion in a dose dependent manner	6 ± 5	72±13					
C/C=C(/C)C(=O)O[C@H]1C(C)=C2[C@H]([C@@H]1OC(=O)CCCCCCC)[C@@](C)(OC(C)=O)C[C@H](OC(=O)CCC)[C@@]1(O)[C@H]2OC(=O)[C@@]1(C)O [thapsigargin]					24±6	72±7	34±23		
Oc1cc2c(cc1O)CN(C(=S)NCCc1ccc(Cl)cc1)CCC2 [capsazepine]	mild effect on NO secretion				40±7	37±21		80±9%	enhanced the cytotoxic effect of cannabis
COc1cc(CNC(=O)CCCC/C=C/C(C)C)ccc1O [capsaicin]					19±9	39±11	34±25	60±11% and 62±9%	

— US20240390396A1 (priority 2021, published 2024)
